Reference: PubChem BioAssay AID270 (DTP/NCI, 2004)
Values joined by “and” are separate entries in the source; they are usually repeats but may differ in a detail not shown here. Identical values can stand only once. Records with an inconclusive call do not appear.

Test system: BDF1 mice, s.c. Lewis lung carcinoma, T/C %
Assay: NCI In Vivo Anticancer Drug Screen. Data for tumor model Lewis Lung Carcinoma (subcutaneous) in B6D2F1 (BDF1) mice
In short: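 Antitumor effect in vivo is scored from survival or tumor burden, reported as treated relative to vehicle controls.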

CC[C@]1(O)C[C@H]2CN(CCc3c([nH]c4ccccc34)[C@@](C(=O)OC)(c3cc4c(cc3OC)N(C)[C@H]3[C@@](O)(C(=O)OC)[C@H](OC(C)=O)[C@]5(CC)C=CCN6CC[C@]43[C@@H]65)C2)C1
T/C (endpoint: mean tumor weight, dose: 0.12 mg/kg/injection, schedule: Q01DX011 (ip), vehicle: saline, higher = larger tumour): 109 % of control
T/C (endpoint: mean tumor weight, dose: 0.24 mg/kg/injection, schedule: Q01DX011 (ip), vehicle: saline, higher = larger tumour): 94 % of control
T/C (endpoint: mean tumor weight, dose: 0.36 mg/kg/injection, schedule: Q01DX011 (ip), vehicle: saline, higher = larger tumour): 84 % of control
T/C (endpoint: mean tumor weight, dose: 0.54 mg/kg/injection, schedule: Q01DX011 (ip), vehicle: saline, higher = larger tumour): 99 % of control
T/C (endpoint: mean tumor weight, dose: 0.8 mg/kg/injection, schedule: Q01DX011 (ip), vehicle: saline, higher = larger tumour): 60 % of control
T/C (endpoint: mean tumor weight, dose: 0.81 mg/kg/injection, schedule: Q01DX011 (ip), vehicle: saline, higher = larger tumour): 111 % of control
T/C (endpoint: mean tumor weight, dose: 125.0 micrograms/kg/injection, schedule: Q01DX011 (ip), vehicle: saline, higher = larger tumour): 61 % of control
T/C (endpoint: mean tumor weight, dose: 250.0 micrograms/kg/injection, schedule: Q01DX011 (ip), vehicle: saline, higher = larger tumour): 53 % of control
T/C (endpoint: median survival time, dose: 0.06 mg/kg/injection, schedule: Q01DX009 (ip), vehicle: saline, higher = longer survival): 101 % of control and 118 % of control
T/C (endpoint: median survival time, dose: 0.12 mg/kg/injection, schedule: Q01DX009 (ip), vehicle: saline, higher = longer survival): 88 % of control
T/C (endpoint: median survival time, dose: 0.25 mg/kg/injection, schedule: Q01DX009 (ip), vehicle: saline, higher = longer survival): 96 % of control

[Cl][Ni+2][Cl].[NH-]CCN1CC1
T/C (endpoint: median survival time, dose: 1.56 mg/kg/injection, schedule: Q01DX009 (ip), vehicle: saline, higher = longer survival): 103 % of control and 115 % of control
T/C (endpoint: median survival time, dose: 12.5 mg/kg/injection, schedule: Q01DX009 (ip), vehicle: saline, higher = longer survival): 100 % of control

CCCNC(=NC)c1ccc(NC(=O)c2ccc(C(=O)Nc3ccc(C(=NC)NCCC)cc3)cc2)cc1
T/C (endpoint: mean tumor weight, dose: 2.5 mg/kg/injection, schedule: Q01DX011 (ip), vehicle: other, higher = larger tumour): 124 % of control
T/C (endpoint: mean tumor weight, dose: 5.0 mg/kg/injection, schedule: Q01DX011 (ip), vehicle: other, higher = larger tumour): 56 % of control

O=NN(CCCl)C(=O)NCCCl
T/C (endpoint: mean tumor weight, dose: 1.57 mg/kg/injection, schedule: Q01DX011 (ip), vehicle: saline, higher = larger tumour): 78 % of control
T/C (endpoint: mean tumor weight, dose: 3.13 mg/kg/injection, schedule: Q01DX011 (ip), vehicle: saline, higher = larger tumour): 56 % of control
T/C (endpoint: mean tumor weight, dose: 4.0 mg/kg/injection, schedule: Q01DX011 (ip), vehicle: other, higher = larger tumour): 41 % of control
T/C (endpoint: mean tumor weight, dose: 6.25 mg/kg/injection, schedule: Q01DX011 (ip), vehicle: saline, higher = larger tumour): 4 % of control and 14 % of control
T/C (endpoint: mean tumor weight, dose: 12.5 mg/kg/injection, schedule: Q01DX011 (ip), vehicle: saline, higher = larger tumour): 3 % of control
T/C (endpoint: median survival time, dose: 0.5 mg/kg/injection, schedule: Q08HX024 (ip), vehicle: Klucel (hydroxypropylcellulose) (HPC), higher = longer survival): 90 % of control
T/C (endpoint: median survival time, dose: 1.0 mg/kg/injection, schedule: Q08HX024 (ip), vehicle: Klucel (hydroxypropylcellulose) (HPC), higher = longer survival): 91 % of control
T/C (endpoint: median survival time, dose: 5.0 mg/kg/injection, schedule: Q01DX001 (ip), vehicle: Klucel (hydroxypropylcellulose) (HPC), higher = longer survival): 108 % of control
T/C (endpoint: median survival time, dose: 5.0 mg/kg/injection, schedule: Q01DX001 (ip), vehicle: saline + alcohol, higher = longer survival): 100 % of control and 104 % of control
T/C (endpoint: median survival time, dose: 5.0 mg/kg/injection, schedule: Q01DX001 (ip), vehicle: saline with Tween-80, higher = longer survival): 113 % of control
T/C (endpoint: median survival time, dose: 6.7 mg/kg/injection, schedule: Q01DX005 (ip), vehicle: saline + alcohol, higher = longer survival): 113 % of control
T/C (endpoint: median survival time, dose: 10.0 mg/kg/injection, schedule: Q01DX001 (ip), vehicle: Klucel (hydroxypropylcellulose) (HPC), higher = longer survival): 120 % of control
T/C (endpoint: median survival time, dose: 10.0 mg/kg/injection, schedule: Q01DX001 (ip), vehicle: saline + alcohol, higher = longer survival): 96 % of control and 116 % of control
T/C (endpoint: median survival time, dose: 10.0 mg/kg/injection, schedule: Q01DX001 (ip), vehicle: saline with Tween-80, higher = longer survival): 99 % of control and 102 % of control
T/C (endpoint: median survival time, dose: 13.0 mg/kg/injection, schedule: Q01DX001 (ip), vehicle: saline + alcohol, higher = longer survival): 100 % of control
T/C (endpoint: median survival time, dose: 13.5 mg/kg/injection, schedule: Q01DX001 (ip), vehicle: Klucel (hydroxypropylcellulose) (HPC), higher = longer survival): 160 % of control
T/C (endpoint: median survival time, dose: 15.0 mg/kg/injection, schedule: Q01DX005 (ip), vehicle: saline + alcohol, higher = longer survival): 71 % of control and 85 % of control
T/C (endpoint: median survival time, dose: 20.0 mg/kg/injection, schedule: Q01DX001 (ip), vehicle: Klucel (hydroxypropylcellulose) (HPC), higher = longer survival): 117 % of control
T/C (endpoint: median survival time, dose: 20.0 mg/kg/injection, schedule: Q01DX001 (ip), vehicle: saline + alcohol, higher = longer survival): 104 % of control and 121 % of control
T/C (endpoint: median survival time, dose: 20.0 mg/kg/injection, schedule: Q01DX001 (ip), vehicle: saline with Tween-80, higher = longer survival): 111 % of control and 119 % of control
T/C (endpoint: median survival time, dose: 26.0 mg/kg/injection, schedule: Q01DX001 (ip), vehicle: saline + alcohol, higher = longer survival): 117 % of control
T/C (endpoint: median survival time, dose: 27.0 mg/kg/injection, schedule: Q01DX001 (ip), vehicle: Klucel (hydroxypropylcellulose) (HPC), higher = longer survival): 105 % of control
T/C (endpoint: median survival time, dose: 30.0 mg/kg/injection, schedule: Q01DX001 (ip), vehicle: saline + alcohol, higher = longer survival): 163 % of control
T/C (endpoint: median survival time, dose: 39.0 mg/kg/injection, schedule: Q01DX001 (ip), vehicle: saline + alcohol, higher = longer survival): 100 % of control
T/C (endpoint: median survival time, dose: 40.0 mg/kg/injection, schedule: Q01DX001 (ip), vehicle: Klucel (hydroxypropylcellulose) (HPC), higher = longer survival): 156 % of control
T/C (endpoint: median survival time, dose: 40.0 mg/kg/injection, schedule: Q01DX001 (ip), vehicle: saline with Tween-80, higher = longer survival): 121 % of control
T/C (endpoint: median survival time, dose: 80.0 mg/kg/injection, schedule: Q01DX001 (ip), vehicle: Klucel (hydroxypropylcellulose) (HPC), higher = longer survival): 217 % of control
T/C (endpoint: median survival time, dose: 80.0 mg/kg/injection, schedule: Q01DX001 (ip), vehicle: saline + alcohol, higher = longer survival): 95 % of control
T/C (endpoint: median tumor weight (est.), dose: 14.0 mg/kg/injection, schedule: Q01DX001 (ip), vehicle: saline + alcohol, higher = larger tumour): 70 % of control
T/C (endpoint: median tumor weight (est.), dose: 27.0 mg/kg/injection, schedule: Q01DX001 (ip), vehicle: saline + alcohol, higher = larger tumour): 65 % of control
T/C (endpoint: median tumor weight (est.), dose: 41.0 mg/kg/injection, schedule: Q01DX001 (ip), vehicle: saline + alcohol, higher = larger tumour): 34 % of control

O=C1CCC(=O)N1Br
T/C (endpoint: mean tumor weight, dose: 50.0 mg/kg/injection, schedule: Q01DX011 (ip), vehicle: other, higher = larger tumour): 99 % of control
T/C (endpoint: mean tumor weight, dose: 75.0 mg/kg/injection, schedule: Q01DX011 (ip), vehicle: other, higher = larger tumour): 59 % of control and 75 % of control
T/C (endpoint: mean tumor weight, dose: 150.0 mg/kg/injection, schedule: Q01DX011 (ip), vehicle: other, higher = larger tumour): 76 % of control
T/C (endpoint: mean tumor weight, dose: 300.0 mg/kg/injection, schedule: Q01DX011 (ip), vehicle: other, higher = larger tumour): 115 % of control

O=C(O)C(O)C(O)C1[O][Sb][O]C1CO (stereo not given)
T/C (endpoint: median survival time, dose: 50.0 mg/kg/injection, schedule: Q01DX009 (ip), vehicle: saline, higher = longer survival): 104 % of control
T/C (endpoint: median survival time, dose: 100.0 mg/kg/injection, schedule: Q01DX009 (ip), vehicle: saline, higher = longer survival): 102 % of control

ClCCN(CCCl)CC(Cl)COc1cccc2ccccc12 (stereo not given)
T/C (endpoint: median survival time, dose: 1.25 mg/kg/injection, schedule: Q01DX009 (ip), vehicle: Klucel (hydroxypropylcellulose) (HPC), higher = longer survival): 92 % of control and 103 % of control
T/C (endpoint: median survival time, dose: 2.5 mg/kg/injection, schedule: Q01DX009 (ip), vehicle: Klucel (hydroxypropylcellulose) (HPC), higher = longer survival): 96 % of control and 103 % of control
T/C (endpoint: median survival time, dose: 5.0 mg/kg/injection, schedule: Q01DX009 (ip), vehicle: Klucel (hydroxypropylcellulose) (HPC), higher = longer survival): 97 % of control and 101 % of control
T/C (endpoint: median survival time, dose: 10.0 mg/kg/injection, schedule: Q01DX009 (ip), vehicle: Klucel (hydroxypropylcellulose) (HPC), higher = longer survival): 92 % of control and 110 % of control
T/C (endpoint: median survival time, dose: 20.0 mg/kg/injection, schedule: Q01DX009 (ip), vehicle: Klucel (hydroxypropylcellulose) (HPC), higher = longer survival): 96 % of control and 106 % of control
T/C (endpoint: median survival time, dose: 40.0 mg/kg/injection, schedule: Q01DX009 (ip), vehicle: Klucel (hydroxypropylcellulose) (HPC), higher = longer survival): 97 % of control

CC(=O)Oc1ccc(/C=N/NC(N)=S)nc1
T/C (endpoint: median survival time, dose: 9.4 mg/kg/injection, schedule: Q01DX009 (ip), vehicle: saline with Tween-80, higher = longer survival): 97 % of control
T/C (endpoint: median survival time, dose: 18.8 mg/kg/injection, schedule: Q01DX009 (ip), vehicle: saline with Tween-80, higher = longer survival): 97 % of control
T/C (endpoint: median survival time, dose: 25.0 mg/kg/injection, schedule: Q01DX009 (ip), vehicle: saline with Tween-80, higher = longer survival): 100 % of control
T/C (endpoint: median survival time, dose: 37.5 mg/kg/injection, schedule: Q01DX009 (ip), vehicle: saline with Tween-80, higher = longer survival): 101 % of control
T/C (endpoint: median survival time, dose: 50.0 mg/kg/injection, schedule: Q01DX009 (ip), vehicle: saline with Tween-80, higher = longer survival): 107 % of control
T/C (endpoint: median survival time, dose: 75.0 mg/kg/injection, schedule: Q01DX009 (ip), vehicle: saline with Tween-80, higher = longer survival): 117 % of control
T/C (endpoint: median survival time, dose: 100.0 mg/kg/injection, schedule: Q01DX009 (ip), vehicle: saline with Tween-80, higher = longer survival): 117 % of control
T/C (endpoint: median tumor weight (est.), dose: 24.0 mg/kg/injection, schedule: Q03HX024 (ip), vehicle: saline with Tween-80, higher = larger tumour): 96 % of control
T/C (endpoint: median tumor weight (est.), dose: 36.0 mg/kg/injection, schedule: Q03HX024 (ip), vehicle: saline with Tween-80, higher = larger tumour): 41 % of control

O=P(NC12CC3CC(CC(C3)C1)C2)(N1CC1)N1CC1
T/C (endpoint: median survival time, dose: 0.25 mg/kg/injection, schedule: Q01DX009 (ip), vehicle: Klucel (hydroxypropylcellulose) (HPC), higher = longer survival): 86 % of control
T/C (endpoint: median survival time, dose: 0.5 mg/kg/injection, schedule: Q01DX009 (ip), vehicle: Klucel (hydroxypropylcellulose) (HPC), higher = longer survival): 117 % of control
T/C (endpoint: median survival time, dose: 1.0 mg/kg/injection, schedule: Q01DX009 (ip), vehicle: Klucel (hydroxypropylcellulose) (HPC), higher = longer survival): 92 % of control
T/C (endpoint: median survival time, dose: 2.0 mg/kg/injection, schedule: Q01DX009 (ip), vehicle: Klucel (hydroxypropylcellulose) (HPC), higher = longer survival): 104 % of control
T/C (endpoint: median survival time, dose: 4.0 mg/kg/injection, schedule: Q01DX009 (ip), vehicle: Klucel (hydroxypropylcellulose) (HPC), higher = longer survival): 101 % of control

C=CC(=O)NCNC(=O)C=C
T/C (endpoint: mean tumor weight, dose: 44.0 mg/kg/injection, schedule: Q01DX011 (ip), vehicle: saline, higher = larger tumour): 101 % of control
T/C (endpoint: mean tumor weight, dose: 66.0 mg/kg/injection, schedule: Q01DX011 (ip), vehicle: saline, higher = larger tumour): 48 % of control
T/C (endpoint: mean tumor weight, dose: 100.0 mg/kg/injection, schedule: Q01DX011 (ip), vehicle: saline, higher = larger tumour): 56 % of control
